Test results from patent US12617762B2, “Carboxy derivatives with antiinflamatory properties” (Sitryx Therapeutics Limited, priority 2019, dated 2026).
Like-named read-outs stand apart in the source and are kept apart here.

Legend:
[1] = Hepatocyte stability assay, mouse; format: in vitro ADME; conditions: mouse, hepatocytes; for hepatocyte CLint at 10 μM: Hepatocyte stability Clint; for half-life at 10 μM: Hepatocyte stability T½
From the text: (§1) Defrosted cryo-preserved hepatocytes (viability >70%) were used to determine the metabolic stability of a compound via calculation of intrinsic clearance (CIint; a measure of the removal of a compound from the liver in the absence of blood flow and cell binding). Clearance data are particularly important for in vitro work as they can be used in combination with in vivo data to predict the half-life and oral bioavailability of a drug.
(§2) The metabolic stability in hepatocytes assay involves a time-dependent reaction using both positive and negative controls. The cells were pre-incubated at 37° C. then spiked with test compound (and positive control); samples were taken at pre-determined time intervals and were analysed to monitor the change in concentration of the initial drug compound over 60 minutes. A buffer incubation reaction (with no hepatocytes present) acted as a negative control and two cocktail solutions, containing compounds with known high and low clearance values (verapamil/7-hydroxycoumarin and propranolol/diltiazem), acted as positive controls. • 1. The assay was run with a cell concentration of 0.5×10^6 cells/mL in Leibovitz buffer. • 2. All compounds and controls were run in duplicate. • 3. Compound concentration was 10 μM. • 4. All compounds and controls were incubated with both cells and buffer to show turnover was due to hepatic metabolism. • 5. All wells on the incubation plate had 326.7 μL of either cells or buffer added. • 6. Prior to assay, cell and buffer-only incubation plates were preincubated for 10 mins at 37° C. • 7. The assay was initiated by adding compounds, 3.3 μL of 1 mM in 10% DMSO—90% Buffer; final DMSO concentration was 0.1%. • 8. Samples were taken at regular timepoints (0, 5, 10, 20, 40, 60 min) until 60 mins. • 9. Sample volume was 40 μL and was added to 160 μL of crash solvent (acetonitrile with internal standard) and stored on ice. • 10. At the end of the assay, the crash plates were centrifuged at 3500 rpm for 20 mins at 4° C. • 11. 80 μL of clear supernatant was removed and mixed with 80 μL of deionised water before being analysed by LC-MS/MS.
(§3) Raw LC-MS/MS data was exported to, and analysed in, Microsoft Excel for determination of intrinsic clearance. The percentage remaining of a compound was monitored using the peak area of the initial concentration as 100%. Intrinsic clearance and half-life values were calculated using a graph of the natural log of percentage remaining versus the time of reaction in minutes.

[2] = Hepatocyte stability assay, human; format: in vitro ADME; conditions: human, hepatocytes; for hepatocyte CLint at 10 μM: Hepatocyte stability Clint; for half-life at 10 μM: Hepatocyte stability T½
From the text: as §1, §2, §3

[3] = tested on: IL-1β cytokine output from THP-1s; assay: THP-1 AlphaLISA IL-1β cytokine inhibition assay; format: cell-based; conditions: for IC50: Homo sapiens, THP-1, differentiated THP-1 cells, LPS then nigericin; for IL-1β lowering, result in words: THP-1 IL-1β assay
Method in brief: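 IL-1β release by AlphaLISA, expressed as % inhibition against +/− LPS controls on each plate. Differentiation: PMA, 72 h. Sequence: 30 min compound pre-treatment, LPS 24 h, Nigericin 1 h before supernatant harvest, all at 37° C./5% CO2.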

[4] = tested on: NRF2 (nuclear factor erythroid 2-related factor 2); assay: NRF2 +/-GSH activation assay (DiscoverX PathHunter NRF2 translocation kit, U2OS cells); format: cell-based; conditions: for NRF2 activation +GSH Emax / NRF2 activation −GSH Emax: normalised to DMF high control
Method: Measuring Compound Activation Effects on the Anti-Inflammatory Transcription Factor NRF2 in DiscoverX PathHunter NRF2 Translocation Kit
Potency and efficacy of compounds of formula (I) against the target of interest to activate NRF2 (nuclear factor erythroid 2-related factor 2) were determined using the PathHunter NRF2 translocation kit (DiscoverX). The NRF2 translocation assay was run using an engineered recombinant cell line, utilising enzyme fragment complementation to determine activation of the Keap1-NRF2 protein complex and subsequent translocation of NRF2 into the nucleus. Enzyme activity was quantified using a chemiluminescent substrate consumed following the formation of a functional enzyme upon PK-tagged NRF2 translocation into the nucleus.
The assay was run under both +/−GSH (glutathione) conditions to determine the sensitivity of the compounds' NRF2-activating abilities to attenuation by GSH.
Additionally, a defined concentration of DMF was used as the ‘High’ control to normalise test compound activation responses to.
U2OS PathHunter eXpress cells were thawed from frozen prior to plating. Following plating, U2OS cells were incubated for 24 hrs (37° C./5% CO2) in commercial kit provided cell medium.
Following 24 hrs of U2OS incubation, cells were directly treated with an appropriate final concentration of compound, for −GSH conditions or, for +GSH conditions, an intermediate plate containing 6× working concentrations of compound stocks was prepared in a 6 mM working concentration of GSH solution (solubilised in sterile PBS). Following a 30 minute compound-GSH pre-incubation (37° C./5% CO2) for +GSH treatment, plated U2OS cells were incubated with an appropriate final concentration of compound and GSH.
Following compound (+/−GSH) treatment, the U2OS plates were incubated for a further 6 hours (37° C./5% CO2) before detection reagent from the PathHunter NRF2 commercial kit was prepared and added to test plates according to the manufacturer's instructions. Subsequently, the luminescence signal detection was measured in a microplate reader (PHERAstar®, BMG Labtech).
Percentage activation was calculated by normalising the sample data to the high and low controls used within each plate (+/−DMF).

[5] = +GSH, 30 minute compound-GSH pre-incubation, read-out: NRF2 activation +GSH EC50
[6] = −GSH, U2OS PathHunter cells, 6 hours compound treatment, read-out: NRF2 activation −GSH EC50

Row | SMILES | hepatocyte CLint at 10 μM [1] [µL/min/1e6 cells] | hepatocyte CLint at 10 μM [2] [µL/min/1e6 cells] | IC50 [3] [µM] | EC50 [4, 5] [µM] | NRF2 activation +GSH Emax ([4]; +GSH) [%] | EC50 [4, 6] [µM] | NRF2 activation −GSH Emax ([4]; −GSH) [%] | half-life at 10 μM [1] [min] | half-life at 10 μM [2] [min] | IL-1β lowering, result in words [3]
1 | C=C(Cc1ccccc1Cl)C(=O)O [2-(2-chlorobenzyl)acrylic acid, reference compound] | 95 | 21 | > 100 | > 100 | 9 | > 100 | 2 |  |  | 
2 | C=C(Cc1nnc(CCCCCCCC)o1)C(=O)O [Example 2, 2-((5-octyl-1,3,4-oxadiazol-2-yl)methyl)acrylic acid] | 74 | 95 | 36.8 | 26.8 | 169 | 19.1 | 176 | 19 | 15 | 
3 | C=C(Cc1nc(Cc2ccc(Cl)cc2)no1)C(=O)O [Example 4, 2-((3-(4-chlorobenzyl)-1,2,4-oxadiazol-5-yl)methyl)acrylic acid] | 13 | < 3 | 49.3 | > 100 | 23 | 40.5 | 47 | 93 | > 460 | 
4 | C=C(Cc1nc(CCc2ccc(Cl)cc2)no1)C(=O)O [Example 5, 2-((3-(4-chlorophenethyl)-1,2,4-oxadiazol-5-yl)methyl)acrylic acid] | 48 | 8 | 45.3 | 50.4 | 63 | 42.4 | 74 | 40 | 174 | 
5 | C=C(Cc1nc(-c2ccc(Cl)cc2)no1)C(=O)O [Example 7, 2-((3-(4-chlorophenyl)-1,2,4-oxadiazol-5-yl)methyl)acrylic acid] | 28 | < 6 | > 100 | 44.5 | 89 | 39.7 | 113 | 49 | > 320 | not effective
6 | C=C(Cc1nc(Cc2ccc3ccccc3c2)no1)C(=O)O [Example 9, 2-((3-(naphthalen-2-ylmethyl)-1,2,4-oxadiazol-5-yl)methyl)acrylic acid] | 41 | 7 | 54.7 | 69.9 | 44 | 42.7 | 51 | 25 | 181 | 
7 | C=C(Cc1nc(CCCCCCCC(F)(F)F)no1)C(=O)O [Example 11, 2-((3-(8,8,8-trifluorooctyl)-1,2,4-oxadiazol-5-yl)methyl)acrylic acid] | 56 | 30 | 8.2 | 13.1 | 149 | 11.4 | 185 | 18 | 42 | 
8 | C=C(Cc1nc(C(C)(C)CCCCC)no1)C(=O)O [Example 12, 2-((3-(2-methylheptan-2-yl)-1,2,4-oxadiazol-5-yl)methyl)acrylic acid] | 15 | 16 | > 100 | 61.9 | 73 | 53.1 | 85 | 90 | 90 | not effective
9 | C=C(Cc1nc(Cc2ccc(Cl)c(Cl)c2)no1)C(=O)O [Example 14, 2-((3-(3,4-dichlorobenzyl)-1,2,4-oxadiazol-5-yl)methyl)acrylic acid] | 18 | 6 | > 100 | 52.2 | 46 | 21.8 | 78 | 72 | 240 | not effective
10 | C=C(Cc1nc(Cc2ccc(C(C)(C)C)cc2)no1)C(=O)O [Example 15, 2-((3-(4-(tert-butyl)benzyl)-1,2,4-oxadiazol-5-yl)methyl)acrylic acid] | 31 | 7.5 | 23.8 | > 100 | 33 | 57.1 | 41 | 35 | 167 | 
11 | C=C(Cc1nc(Cc2cc(Cl)cc(Cl)c2)no1)C(=O)O [Example 16, 2-((3-(3,5-dichlorobenzyl)-1,2,4-oxadiazol-5-yl)methyl)acrylic acid] | 29 | < 4 | 45.6 | 23.6 | 149 | 19.4 | 180 | 45 | > 362 | 
12 | C=C(Cc1nc(-c2ccc(CCCC)cc2)no1)C(=O)O [Example 18, 2-((3-(4-butylphenyl)-1,2,4-oxadiazol-5-yl)methyl)acrylic acid] | > 460 | 159 | 15.3 | 3.8 | 159 | 3.5 | 207 | < 3 | 11 | 
13 | C=C(Cc1nc(C2(c3cccc(Cl)c3)CC2)no1)C(=O)O [Example 21, 2-((3-(1-(3-chlorophenyl)cyclopropyl)-1,2,4-oxadiazol-5-yl)methyl)acrylic acid] | 62 | 21 | > 100 | 44 | 81 | 31.7 | 125 | 28 | 83 | not effective
14 | C=C(Cc1nc(-c2ccc(CCCCC)cc2)no1)C(=O)O [Example 23, 2-((3-(4-pentylphenyl)-1,2,4-oxadiazol-5-yl)methyl)acrylic acid] | > 460 | 321 | 4.6 | 2.2 | 162 | 1.6 | 209 | < 3 | 5 | 
